The values below come from ChEMBL document CHEMBL1141145, “A chiral benzoquinolizine-2-carboxylic acid arginine salt active against vancomycin-resistant Staphylococcus aureus” (J Med Chem, 2005).

For data set [1], the system named is Mus musculus. The experiment in a line: Protection of mice infected with MRSA-32 cell suspension after oral administration of compound. In kind it is functional.
For data set [2], the system named is Staphylococcus aureus. Description: Minimum inhibitory concentration against methicillin susceptible Staphylococcus aureus before esterase action in rat serum. In kind it is functional.
In data set [3] the test system is Staphylococcus aureus. Description: Minimum inhibitory concentration against methicillin susceptible Staphylococcus aureus after esterase action in rat serum. In kind it is functional.
The test system of data set [4] is Staphylococcus aureus. Description: Minimum inhibitory concentration against vancomycin-resistant Staphylococcus aureus (Hershey). In kind it is functional.
Data set [5] relates to Staphylococcus aureus. Description: Minimum inhibitory concentration against vancomycin intermediate Staphylococcus aureus MU 3. In kind it is functional.
The test system of data set [6] is Staphylococcus aureus. The experiment in a line: Minimum inhibitory concentration against Vancomycin intermediate Staphylococcus aureus MU 50. In kind it is functional.
For data set [7], the system named is Mus musculus. The experiment in a line: Efficacy against mice infected with MRSA-33 upon s.c. administration. In kind it is functional. The following applies: sc.
In data set [8] the test system is Mus musculus. Description: Efficacy against mice infected with MRSA-32 upon s.c. administration. In kind it is functional. The conditions noted are these: MRSA-32, sc.
Data set [9] relates to Mus musculus. Description: Efficacy against mice infected with Staphylococcus aureus ATCC 25923 upon s.c. administration. In kind it is functional. The following applies: sc.
Data set [10] relates to Staphylococcus aureus. The experiment in a line: Minimum inhibitory concentration against methicillin susceptible Staphylococcus aureus. In kind it is functional.
The target in data set [11] is DNA gyrase (Staphylococcus aureus) (UniProt P0A0K8+P20831).
Data set [12] has as its target DNA topoisomerase 4 subunit A (Staphylococcus aureus) (UniProt P0C1U9).
Data set [13] in a line: physchem. The following applies: octanol/water, pH 7.4.
Data set [14] is described as follows: physchem.
Data set [15] can be described thus: physchem. The following applies: octanol/water, pH 2.
Data set [16] concerns Staphylococcus aureus. Description: Minimum inhibitory concentration against vancomycin intermediate Staphylococcus aureus MU 50. In kind it is functional.
Data set [17] relates to Staphylococcus aureus. The experiment in a line: microbe, parasite or virus in culture.
In data set [18] the test system is Staphylococcus aureus. The experiment in a line: microbe, parasite or virus in culture. This is another data set of the same source.
The test system of data set [19] is Staphylococcus aureus. The experiment in a line: microbe, parasite or virus in culture. This is another data set of the same source.
The mark [20] stands for this setting: Mus musculus, MRSA-32, po, read-out: ED50.
Where [21] appears, read: Staphylococcus aureus, read-out: MIC.

Converted amounts (≈) assume the structure as drawn.

Sequence of DNA topoisomerase 4 subunit A (Staphylococcus aureus) (P0C1U9 whole entry): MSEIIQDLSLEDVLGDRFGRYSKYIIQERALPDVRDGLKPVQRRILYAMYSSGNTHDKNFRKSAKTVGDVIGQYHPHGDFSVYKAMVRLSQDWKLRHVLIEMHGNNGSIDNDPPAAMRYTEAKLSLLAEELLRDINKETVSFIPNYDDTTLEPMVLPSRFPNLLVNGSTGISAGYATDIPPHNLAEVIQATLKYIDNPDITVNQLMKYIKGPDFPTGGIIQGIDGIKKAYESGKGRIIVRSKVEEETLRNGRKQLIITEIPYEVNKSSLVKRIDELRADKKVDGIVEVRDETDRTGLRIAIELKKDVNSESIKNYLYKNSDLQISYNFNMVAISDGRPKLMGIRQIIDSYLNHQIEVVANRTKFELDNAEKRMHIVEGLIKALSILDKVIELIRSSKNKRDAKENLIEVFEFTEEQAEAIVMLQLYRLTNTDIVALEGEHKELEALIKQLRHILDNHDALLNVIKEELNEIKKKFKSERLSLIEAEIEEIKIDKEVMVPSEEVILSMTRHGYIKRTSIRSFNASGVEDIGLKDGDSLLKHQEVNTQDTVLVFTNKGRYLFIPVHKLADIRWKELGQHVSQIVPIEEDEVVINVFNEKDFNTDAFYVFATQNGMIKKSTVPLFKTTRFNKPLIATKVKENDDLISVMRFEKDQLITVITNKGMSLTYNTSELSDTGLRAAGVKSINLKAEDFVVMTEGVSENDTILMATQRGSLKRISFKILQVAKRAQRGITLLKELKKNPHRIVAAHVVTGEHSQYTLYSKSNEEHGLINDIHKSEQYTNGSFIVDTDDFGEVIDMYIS
Sequence of DNA gyrase (Staphylococcus aureus) (P0A0K8 2-644 limits assumed): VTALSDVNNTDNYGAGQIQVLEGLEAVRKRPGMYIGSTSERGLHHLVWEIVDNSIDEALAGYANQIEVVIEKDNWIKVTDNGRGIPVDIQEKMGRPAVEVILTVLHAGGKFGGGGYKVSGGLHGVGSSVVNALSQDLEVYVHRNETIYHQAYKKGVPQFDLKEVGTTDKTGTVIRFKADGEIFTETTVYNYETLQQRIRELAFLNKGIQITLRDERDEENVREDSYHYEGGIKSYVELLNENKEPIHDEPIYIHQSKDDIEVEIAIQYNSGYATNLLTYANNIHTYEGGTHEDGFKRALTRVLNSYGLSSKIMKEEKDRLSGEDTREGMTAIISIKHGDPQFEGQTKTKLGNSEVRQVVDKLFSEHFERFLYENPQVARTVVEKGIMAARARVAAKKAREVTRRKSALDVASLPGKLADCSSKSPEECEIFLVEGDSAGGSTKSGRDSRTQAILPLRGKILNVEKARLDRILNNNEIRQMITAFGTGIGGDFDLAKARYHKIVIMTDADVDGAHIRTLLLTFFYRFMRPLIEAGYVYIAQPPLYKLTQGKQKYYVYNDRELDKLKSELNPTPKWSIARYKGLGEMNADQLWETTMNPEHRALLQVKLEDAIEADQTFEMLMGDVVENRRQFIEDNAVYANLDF
Sequence of DNA gyrase (Staphylococcus aureus) (P20831 whole entry partner): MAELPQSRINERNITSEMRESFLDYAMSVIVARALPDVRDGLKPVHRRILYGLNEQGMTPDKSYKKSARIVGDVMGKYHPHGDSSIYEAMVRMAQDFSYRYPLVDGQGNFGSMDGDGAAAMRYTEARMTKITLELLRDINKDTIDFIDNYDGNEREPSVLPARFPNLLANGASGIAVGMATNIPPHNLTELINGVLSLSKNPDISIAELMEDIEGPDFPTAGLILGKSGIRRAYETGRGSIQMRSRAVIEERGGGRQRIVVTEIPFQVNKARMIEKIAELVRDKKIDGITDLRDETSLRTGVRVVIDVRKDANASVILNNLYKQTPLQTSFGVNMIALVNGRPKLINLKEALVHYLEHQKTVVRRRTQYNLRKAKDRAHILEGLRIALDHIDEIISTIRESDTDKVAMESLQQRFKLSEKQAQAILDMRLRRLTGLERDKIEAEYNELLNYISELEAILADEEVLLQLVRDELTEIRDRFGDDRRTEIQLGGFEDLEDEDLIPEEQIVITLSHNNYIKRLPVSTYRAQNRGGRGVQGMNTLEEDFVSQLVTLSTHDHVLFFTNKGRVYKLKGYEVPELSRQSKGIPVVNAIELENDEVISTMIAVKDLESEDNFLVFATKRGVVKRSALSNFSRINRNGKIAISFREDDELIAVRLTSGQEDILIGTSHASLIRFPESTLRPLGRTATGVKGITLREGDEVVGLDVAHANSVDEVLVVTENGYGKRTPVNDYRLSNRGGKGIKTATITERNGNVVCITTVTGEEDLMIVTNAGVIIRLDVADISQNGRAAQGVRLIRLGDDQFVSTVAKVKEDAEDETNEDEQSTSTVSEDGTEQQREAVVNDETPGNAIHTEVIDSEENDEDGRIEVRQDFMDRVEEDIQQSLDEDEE

As usually defined, the ED50 is the dose at which the effect has come halfway, by size or by number of responders. Take `C[C@H]1CCc2c(N3CCC(OC(=O)[C@H](N)CCCN=C(N)N)CC3)c(F)cc3c(=O)c(C(=O)O)cn1c23`: in the data set with Mus musculus [1] (setting [20]), the ED50 is over 100 mg/kg. Also, the MIC against Staphylococcus aureus [2] was found to be 1 µg/mL (≈ 1.94 µM); in the data set on Staphylococcus aureus [3] it was 0.1 µg/mL (≈ 0.194 µM).
On to `C[C@H]1CCc2c(N3CCC(OC(=O)C(C)(C)C)CC3)c(F)cc3c(=O)c(C(=O)O)cn1c23`, for which, in the data set with Mus musculus [1] (setting [20]), the ED50 was over 100 mg/kg. The MIC in the data set on Staphylococcus aureus [2] came out at 0.5 µg/mL (≈ 1.12 µM); with Staphylococcus aureus [3], 0.25 µg/mL (≈ 0.562 µM).
Consider `CN[C@H](CC(C)C)C(=O)N[C@H]1C(=O)N[C@@H](CC(N)=O)C(=O)N[C@H]2C(=O)N[C@H]3C(=O)N[C@H](C(=O)N[C@H](C(=O)O)c4cc(O)cc(O)c4-c4cc3ccc4O)[C@H](O)c3ccc(c(Cl)c3)Oc3cc2cc(c3O[C@@H]2O[C@H](CO)[C@@H](O)[C@H](O)[C@H]2O[C@H]2C[C@](C)(N)[C@H](O)[C@H](C)O2)Oc2ccc(cc2Cl)[C@H]1O` [VANCOMYCIN], for which the MIC came to 32 µg/mL (≈ 22.1 µM) with Staphylococcus aureus [4], 8 µg/mL (≈ 5.52 µM) against Staphylococcus aureus [5] and 16 µg/mL (≈ 11 µM) with Staphylococcus aureus [6]. In addition, the ED50 was over 3.7 mg/kg in the data set with Mus musculus [7], over 2.18 mg/kg in the data set on Mus musculus [8] and 6.11 mg/kg with Mus musculus [9].
For `C[C@H]1CCc2c(N3CCC(O)CC3)c(F)cc3c(=O)c(C(=O)OCCN4CCOCC4)cn1c23`, the ED50 with Mus musculus [1] (setting [20]) was over 100 mg/kg. Moreover, the values for the MIC in the data set with Staphylococcus aureus [2] and against Staphylococcus aureus [3] were 0.25 µg/mL (≈ 0.528 µM) and 0.1 µg/mL (≈ 0.211 µM), respectively.
As for `C[C@H]1CCc2c(N3CCC(O)CC3)c(F)cc3c(=O)c(C(=O)O)cn1c23.NCCCC[C@H](N)C(=O)O`, the ED50 in the data set with Mus musculus [1] (setting [20]) was over 100 mg/kg. The MIC in the data set on Staphylococcus aureus [10] (setting [21]) came to 0.03 µg/mL.
For `C[C@H]1CCc2c(N3CCC(O)CC3)c(F)cc3c(=O)c(C(=O)O)cn1c23.N=C(N)NCCC[C@H](N)C(=O)O` (stereo in doubt; 20), the ED50 in the data set on Mus musculus [1] is over 100 mg/kg. For the same compound, in the data set with Staphylococcus aureus [10], the MIC came out at 0.03 µg/mL.
Turning to `C[C@H]1CCc2c(N3CCC(O)CC3)c(F)cc3c(=O)c(C(=O)O)cn1c23`, the CC50 in data set [11] was found to be 5 µg/mL (≈ 13.9 µM); in data set [12], 2.5 µg/mL (≈ 6.94 µM).
In the case of `COC(=O)COC(=O)c1cn2c3c(c(N4CCC(O)CC4)c(F)cc3c1=O)CC[C@@H]2C`, in the data set on Mus musculus [1] (setting [20]), the median effective dose (ED50) was over 150 mg/kg. The MIC against Staphylococcus aureus [2] stood at 8 µg/mL (≈ 18.5 µM); against Staphylococcus aureus [3], 4 µg/mL (≈ 9.25 µM).
For `CCOC(=O)COC(=O)c1cn2c3c(c(N4CCC(O)CC4)c(F)cc3c1=O)CC[C@@H]2C`, the ED50 in the data set with Mus musculus [1] (setting [20]) was over 150 mg/kg. In addition, the MIC against Staphylococcus aureus [2] came to 8 µg/mL (≈ 17.9 µM); against Staphylococcus aureus [3] it was 2 µg/mL (≈ 4.48 µM).
Turning to `C[C@H]1CCc2c(N3CCC(O)CC3)c(F)cc3c(=O)c(C(=O)OC4CCN(C)CC4)cn1c23`, the ED50 in the data set on Mus musculus [1] (setting [20]) was over 100 mg/kg. Further, the MIC with Staphylococcus aureus [2] came to 2 µg/mL (≈ 4.37 µM); in the data set with Staphylococcus aureus [3] it was 1 µg/mL (≈ 2.19 µM).
One may read the logD as the decadic logarithm of the distribution of all forms, ionised or not, between an organic phase and buffer at a given pH. A higher logD goes with higher lipophilicity. As usually defined, the pKa is the negative logarithm of the acid dissociation constant. Read a high pKa as a weaker acid or stronger base. Turning to `CCn1cc(C(=O)O)c(=O)c2cc(F)c(N3CCNCC3)cc21` [NORFLOXACIN], the logD in “physchem [13]” was -1; in the data set “physchem [15]”, -1.46. The compound also showed a pKa in the data set “physchem [14]” of 6.54.
On to `C[C@H]1CCc2c(N3CCC(O)CC3)c(F)cc3c(=O)c(C(=O)O)cn1c23.N=C(N)NCCC[C@H](N)C(=O)O` (stereo in doubt; 19), for which the median effective dose (ED50) in the data set on Mus musculus [1] (setting [20]) was 90.3 mg/kg. In addition, the MIC in the data set on Staphylococcus aureus [10] (setting [21]) was determined as 0.03 µg/mL.
Turning to `C[C@H]1CCc2c(N3CCC(O)CC3)c(F)cc3c(=O)c(C(=O)[O-])cn1c23.[K+]`, in the data set on Mus musculus [1] (setting [20]), the ED50 was over 100 mg/kg. The MIC with Staphylococcus aureus [10] (setting [21]) worked out at 0.03 µg/mL.
Turning to `CCCCCCCCCC(=O)N[C@@H](Cc1c[nH]c2ccccc12)C(=O)N[C@H](CC(N)=O)C(=O)N[C@@H](CC(=O)O)C(=O)N[C@@H]1C(=O)NCC(=O)N[C@@H](CCCN)C(=O)N[C@@H](CC(=O)O)C(=O)N[C@H](C)C(=O)N[C@@H](CC(=O)O)C(=O)NCC(=O)N[C@H](CO)C(=O)N[C@@H]([C@H](C)CC(=O)O)C(=O)N[C@@H](CC(=O)c2ccccc2N)C(=O)O[C@@H]1C`, the MIC against Staphylococcus aureus [4] was determined as 0.5 µg/mL (≈ 0.309 µM); with Staphylococcus aureus [16] it was 0.5 µg/mL (≈ 0.309 µM); against Staphylococcus aureus [5] it was 0.25 µg/mL (≈ 0.154 µM); in the data set with Staphylococcus aureus [17], 250 µg/mL (≈ 154 µM); against Staphylococcus aureus [18], 0.25 µg/mL (≈ 0.154 µM); with Staphylococcus aureus [19], 0.25 µg/mL (≈ 0.154 µM).
